Consider six compounds from PMC9727733, “Liposomal Binuclear Ir(III)–Cu(II) Coordination Compounds with Phosphino-Fluoroquinolone Conjugates for Human Prostate Carcinoma Treatment” (Inorganic Chemistry, 2022).

Common to all, as to type: cell-based
For assay [1], the system named is HEK293T cell line (human embryonic kidney). Briefly: MTT cytotoxicity assay, HEK293T normal cells. As to the method: (§1) The cytotoxicity of the four novel heteronuclear Ir^III–Cu^II complexes was assessed against four selected cancer cell lines: A549, MCF7, DU145, WM2664, and one normal HEK293T cell line in vitro (Table 3). IC50 values (concentration of a drug required to inhibit the growth of 50% of the cells) were assessed in two different approaches, i.e., after 24 or 24 + 48 h, using the 3-(4,5-dimethylthiazole)-2,5-diphenyltetrazolium bromide (MTT) method. Cancerous and noncancerous diseases have also been treated with the well-known drug cisplatin in the same concentration range as investigated complexes and are considered as a control. IC50 values have been determined from the plots of cell viability at various concentrations of each compound by matching appropriate dose–response curves and are presented in Table 3.
(§2) (human skin (metastasis), morphology: epithelial, ATCC CRL-1676) were cultured in EMEM (EBSS) + 2mM Glutamine + 1% Non-Essential Amino Acids (NEAA) + 1% Sodium Pyruvate (NaP) + 10% Foetal Bovine Serum (FBS). DU-145 cell line (human prostate carcinoma) and HEK293T cell line (human embryonic kidney) were cultured in minimum essential medium (MEM, Corning) with only 10% fetal bovine serum (FBS). Cultures were incubated at 37 °C under a humidified atmosphere containing 5% CO2.
(§3) Cells were passaged using a solution containing 0.05% trypsin and 0.5 mM EDTA. All media and other ingredients were purchased from ALAB, Poland.
(§4) Since most of the studied compounds are insoluble in aqueous media, therefore they needed to be pre-dissolved in DMSO for biological tests. Cytotoxicity was assessed by MTT assay performed according to the protocols described previously. (70) In brief, 1 × 10^4 cells per well, seeded in 96-well flat-bottom microtiter plate, were incubated with the tested complexes (1, 2, 3 and 4) at various concentrations for 24 h.
(§5) After that time, solutions of compounds were washed out, cells were washed thee time with PBS and fresh medium was applied. Each compound concentration was tested in five replicates and repeated at least three times. Determined values of IC50 (concentration of a drug required to inhibit the growth of 50% of the cells) are given as mean + S.D. (Standard Deviation). Furthermore, post-treatment survival assessment of the treated cells was analyzed under a fluorescence inverted microscope (Olympus IC51, Japan) with an excitation filter 470/20 nm. For this, cells were stained with two versatile fluorescence dyes: fluorescein […]
(§6) diacetate (FDA, 5 mg/mL) and propidium iodide (PI, 5 mg/mL) in standard conditions in the dark for 20 min. Before visualization dyes were removed and cells were washed with PBS twice. IC50 values were determined, after 72 h, from the plots of cell viability in the presence of various concentrations of each compound by matching dose–response curves. […]
A general note: Tetrazolium assays rely on reduction of a dye to a coloured formazan, in cell work by metabolically active cells.

In assay [2] the test system is DU-145 cell line (human prostate carcinoma). Description: MTT cytotoxicity assay, DU145 cells. As to the method:
as §1, with “3. […]” for “3.”
Bovine Serum (FBS). DU-145 cell line (human prostate carcinoma) and HEK293T cell line (human embryonic kidney) were cultured in minimum essential medium (MEM, Corning) with only 10% fetal bovine serum (FBS). Cultures were incubated at 37 °C under a humidified atmosphere containing 5% CO2.
as §3, §4, §5, §6

The test system of assay [3] is A549 cell line (human lung adenocarcinoma). Briefly: MTT cytotoxicity assay, A549 cells. As to conditions: for IC50: MTT. As to the method: as §1, with “3. […]” for “3.”
(§7) MCF7 cell line (human breast adenocarcinoma, morphology: epithelial-like, ATCC: HTB-22), A549 cell line (human lung adenocarcinoma, morphology: epithelial, ATCC: CCL-185) and HaCaT (human keratinocyte) were cultured in Dulbecco’s Modified Eagle’s Medium (DMEM, Corning) with phenol red, supplemented with 10% fetal bovine serum (FBS) and with 1% streptomycin/penicillin. WM266-4 cell line […]
as §2, §3, §4, §5, §6
(4) In brief, before imaging, A549 and Du145 cells were seeded on microscopic slides at a […]

For assay [4], the system named is MCF7 cell line (human breast adenocarcinoma). Description: MTT cytotoxicity assay, MCF7 cells. The method, then:
as §1, with “3. […]” for “3.”
as §7, §2, §3, §4, §5, §6

Assay [5] concerns WM2664 cells (WM266-4, human skin metastasis). Description: MTT cytotoxicity assay, WM2664 cells. The method, then:
as §1, with “3. […]” for “3.”
as §7, §2, §3, §4, §5, §6

The mark [6] stands for this setting: DU145, 72 h (24 + 48 h recovery).
Setting [7] is: A549, 72 h (24 + 48 h recovery).
The mark [8] stands for this setting: MCF7, 72 h (24 + 48 h recovery).
Setting [9] is: WM2664, 72 h (24 + 48 h recovery).

For the compound “[Ir(η^5-Cp*)Cl2Pcfx-Cu(phen)](NO3)·1.75(CH3OH)·0.75(H2O) [IrPcfxCu (1)]”, the IC50 in assay [1] (24 h treatment) came to 787 ± 11.2 µM; in assay [1] (72 h (24 + 48 h recovery)), 887 ± 12.7 µM; in assay [2] (DU145, 24 h treatment), 1.28e-06 µM; in assay [2] (setting [6]), 126 ± 3.4 µM; in assay [3] (A549, 24 h treatment) it was 0.0355 ± 5.6e-06 µM; in assay [3] (setting [7]), 0.000424 µM. Further, the IC50 in assay [4] (MCF7, 24 h treatment) was 35.3 ± 6.5 µM; in assay [4] (setting [8]) it was more than 1000 µM; in assay [5] (WM2664, 24 h treatment), 0.0052 ± 4.1e-06 µM; in assay [5] (setting [9]), 137 ± 2.2 µM.
For the compound “[Ir(η^5-Cp*)Cl2Plfx-Cu(phen)](NO3)·1.3(H2O)·1.95(CH3OH) [IrPlfxCu (3)]”, the 50% inhibitory concentration (IC50) in assay [1] (24 h treatment) was 776 ± 15.7 µM; in assay [1] (72 h (24 + 48 h recovery)), 823 ± 12.3 µM; in assay [2] (DU145, 24 h treatment), 0.0142 ± 2.4e-06 µM; in assay [2] (setting [6]), 126 ± 4.4 µM; in assay [3] (A549, 24 h treatment) it was 0.0316 ± 7.6e-06 µM; in assay [3] (setting [7]), 0.36 ± 0.00022 µM. Also, the 50% inhibitory concentration (IC50) in assay [4] (MCF7, 24 h treatment) is 24.2 ± 7.2 µM; in assay [4] (setting [8]) it was more than 1000 µM; in assay [5] (WM2664, 24 h treatment) it was 0.0101 ± 2.2e-06 µM; in assay [5] (setting [9]), 229 ± 25.9 µM.
On to `O=[N+]([O-])[O-].O=[N+]([O-])[O-].[Cu+2].c1cnc2c(c1)ccc1cccnc12` [Cu(phen)(NO3)2, reference compound], for which the IC50 in assay [1] (24 h treatment) was found to be 81.8 ± 8.2 µM; in assay [1] (72 h (24 + 48 h recovery)), 42.4 ± 9.1 µM; in assay [2] (DU145, 24 h treatment), 412 ± 10.9 µM; in assay [2] (setting [6]) it was 659 ± 14.5 µM; in assay [3] (A549, 24 h treatment) it was 537 ± 13.2 µM; in assay [3] (setting [7]) it was 721 ± 15.1 µM. Also, the IC50 stood at 318 ± 12.2 µM in assay [4] (MCF7, 24 h treatment); 426 ± 9.9 µM in assay [4] (setting [8]); 933 ± 13.6 µM in assay [5] (WM2664, 24 h treatment); 1110 ± 18.5 µM in assay [5] (setting [9]).
For the compound `N.N.[Cl][Pt][Cl]` [cisplatin (CDDP), cisplatin, reference compound], the IC50 in assay [1] (24 h treatment) was determined as 21 ± 1.8 µM; in assay [1] (72 h (24 + 48 h recovery)), 10.3 ± 2.1 µM; in assay [2] (DU145, 24 h treatment), 0.0683 ± 1.3e-06 µM; in assay [2] (setting [6]), 65.5 ± 3.6 µM; in assay [3] (A549, 24 h treatment) it was 0.057 ± 1.3e-06 µM; in assay [3] (setting [7]), 71.7 ± 3.7 µM. Further, the IC50 in assay [4] (MCF7, 24 h treatment) amounted to 51.9 ± 4.6 µM; in assay [4] (setting [8]), 17.7 ± 8.6 µM; in assay [5] (WM2664, 24 h treatment), 2.6 ± 0.6 µM; in assay [5] (setting [9]) it was 8.3 ± 0.4 µM.
Consider “[Ir(η^5-Cp*)Cl2Pnfx-Cu(phen)](NO3)·1.75(CH3OH)·0.75(H2O) [IrPnfxCu (2)]”, for which the IC50 is 756.8 ± 5.7 µM in assay [1] (24 h treatment); 857 ± 15.9 µM in assay [1] (72 h (24 + 48 h recovery)); 0.00108 ± 1.9e-08 µM in assay [2] (DU145, 24 h treatment); 123 ± 5.4 µM in assay [2] (setting [6]); 0.0112 ± 7.8e-06 µM in assay [3] (A549, 24 h treatment); 0.0366 ± 2.8e-06 µM in assay [3] (setting [7]). The IC50 in assay [4] (MCF7, 24 h treatment) was 30 ± 0.7 µM; in assay [4] (setting [8]) it was more than 1000 µM; in assay [5] (WM2664, 24 h treatment), 0.0099 ± 3.8e-06 µM; in assay [5] (setting [9]), 155 ± 3.2 µM.
“[Ir(η^5-Cp*)Cl2Psfx-Cu(phen)] [IrPsfxCu (4)]”: the IC50 in assay [1] (24 h treatment) turned out to be 677 ± 9.2 µM; in assay [1] (72 h (24 + 48 h recovery)), 777 ± 15.3 µM; in assay [2] (DU145, 24 h treatment), 0.0101 ± 2.9e-06 µM; in assay [2] (setting [6]), 53.6 ± 0.4 µM; in assay [3] (A549, 24 h treatment), 0.0181 ± 1.3e-06 µM; in assay [3] (setting [7]), 0.6 ± 0.00029 µM. Also, the IC50 in assay [4] (MCF7, 24 h treatment) is 10.5 ± 0.8 µM; in assay [4] (setting [8]), more than 1000 µM; in assay [5] (WM2664, 24 h treatment) it was 0.0062 ± 2.4e-06 µM; in assay [5] (setting [9]) it was 212 ± 10.5 µM. In addition, the “times more effective than the reference drug cisplatin” value in assay [3] (A549, IC50 comparison) is listed as “more than 100”. Moreover, in assay [3] (A549 cell line), the “selectivity index (SI – IC50 (normal cell line)/IC50 (cancer cell line))” value was “approximately 1290”.

What is called IC50 is the concentration needed to halve the response being measured.
